Results on 28 compounds are retold here after patent publication US11884675B2, “Heterocyclic compounds as triggering receptor expressed on myeloid cells 2 agonists and methods of use” (AMGEN INC., priority 2020, dated 2024).

Structures are written as SMILES.

The assay addresses hTREM2 (Homo sapiens, UniProt Q9NZC2). Description: TREM2 activity by cellular Syk phosphorylation (AlphaScreen/AlphaLISA) in TREM2/DAP12-HEK cells, used for Examples 1-305. It counts as cell-based. Also noted: expressed in transfected cells. The following applies: HEK293 Cells. The essentials:
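Single-cell-cloned HEK293 cells overexpressing TREM2 and DAP12, seeded 20 h, exposed to test articles (1% final DMSO) for 45 min at room temperature. Lysates read for phospho-Syk (Tyr525/526) vs total Syk by AlphaScreen. Signal normalised as percent of control between isotype IgG and 100 nM anti-TREM2 antibody; 4-parameter logistic fit.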

Chain of hTREM2 (Q9NZC2 19-230): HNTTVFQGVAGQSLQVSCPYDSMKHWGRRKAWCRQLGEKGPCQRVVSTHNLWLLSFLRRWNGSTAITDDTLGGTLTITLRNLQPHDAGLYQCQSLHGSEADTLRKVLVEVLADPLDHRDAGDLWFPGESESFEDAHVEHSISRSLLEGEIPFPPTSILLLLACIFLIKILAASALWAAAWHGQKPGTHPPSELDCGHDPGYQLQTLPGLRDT
Chain of hTREM2 (O43914 22-113 partner): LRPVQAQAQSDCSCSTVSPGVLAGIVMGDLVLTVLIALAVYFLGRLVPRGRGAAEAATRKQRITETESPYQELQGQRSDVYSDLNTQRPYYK

In the case of `Cc1cnc2c(-c3ccc(Cl)cc3F)nc(N3CCO[C@@H](c4cnc(C)nc4)C3)nc2n1` [Example 4, 4-(4-chloro-2-fluorophenyl)-7-methyl-2-((2S)-2-(2-methyl-5-pyrimidinyl)-4-morpholinyl)pteridine], the EC50 fell in the range of 50 to 500 nM; the “hTREM2 Emax” value was “+++ (Emax>150 and ≤250)”.

On to `Cc1nc2nc(N3CCO[C@@H](c4cnn(C5CC5)c4)C3)nc([C@H]3C[C@@H](C(F)F)C3)c2nc1C` [Example 47, 2-((2S)-2-(1-cyclopropyl-1H-pyrazol-4-yl)-4-morpholinyl)-4-(cis-3-(difluoromethyl)cyclobutyl)-6,7-dimethylpteridine], for which the EC50 was at most 50 nM; the “hTREM2 Emax” value is “+ (Emax>45 and ≤100)”.

As for `Cc1cc([C@@H]2CN(c3nc(-c4ccc(Cl)cc4F)c4ccc(C)nc4n3)CCO2)cnn1` [Example 259, (R)-4-(4-(4-chloro-2-fluorophenyl)-7-methylpyrido[2,3-d]pyrimidin-2-yl)-2-(6-methylpyridazin-4-yl)morpholine], the EC50 was at most 50 nM and the “hTREM2 Emax” value was “++++ (Emax>250)”.

Turning to `Cc1cc([C@@H]2CN(c3nc4nc(C)cnc4c([C@H]4C[C@H](C(F)(F)F)C4)n3)CCO2)cnn1` [Example 281, (R)-4-(7-methyl-4-((1r,3S)-3-(trifluoromethyl)cyclobutyl)pteridin-2-yl)-2-(6-methylpyridazin-4-yl)morpholine], the EC50 lay in the range of 500 to 3000 nM; the “hTREM2 Emax” value is “+++ (Emax>150 and ≤250)”.

As for `Cc1cnc2c(-c3ccc(Cl)cc3F)nc([C@H]3CCO[C@H](c4cnn(C)c4)C3)cc2n1` [Example 246, 5-(4-chloro-2-fluorophenyl)-2-methyl-7-((2S,4S)-2-(1-methyl-1H-pyrazol-4-yl)tetrahydro-2H-pyran-4-yl)pyrido[3,4-b] pyrazine], the EC50 was in the range of 3000 to 100000 nM; the “hTREM2 Emax” value was “+++ (Emax>150 and ≤250)”.

For the compound `Cc1ccc2c(-c3ccc(Cl)cc3F)nc(N3CCO[C@@H](c4cnn(C5CC5)c4)C3)nc2n1` [Example 85, 4-(4-chloro-2-fluorophenyl)-2-((2S)-2-(1-cyclopropyl-1H-pyrazol-4-yl)-4-morpholinyl)-7-methylpyrido[2,3-d]pyrimidine], the EC50 is at most 50 nM; the “hTREM2 Emax” value is “+++ (Emax>150 and ≤250)”.

As to `Cc1cc([C@H]2CN(c3cc4nc(C)ccc4c(-c4ccc(Cl)cc4F)n3)CCO2)ccn1` [Example 151, 5-(4-chloro-2-fluorophenyl)-2-methyl-7-((2S)-2-(2-methyl-4-pyridinyl)-4-morpholinyl)-1,6-naphthyridine], the EC50 fell in the range of 50 to 500 nM and the “hTREM2 Emax” value is “++++ (Emax>250)”.

`Cc1cc2c(OC[C@H]3CC3(C)C)nc(N3CCO[C@@H](c4cnn(C)c4)C3)nc2nc1C` [Example 111, 4-(((1S)-2,2-dimethylcyclopropyl)methoxy)-6,7-dimethyl-2-((2S)-2-(1-methyl-1H-pyrazol-4-yl)-4-morpholinyl)pyrido[2,3-d]pyrimidine]: the EC50 was in the range of 500 to 3000 nM; the “hTREM2 Emax” value is “+ (Emax>45 and ≤100)”.

Take `Cc1cnc2c(-c3ccc(Cl)cc3F)nc([C@H]3CCO[C@@H](c4cnn(C5CC5)c4)C3)nc2n1` (single isomer, unassigned) [Example 170]: the EC50 was at most 50 nM and the “hTREM2 Emax” value is given as “++++ (Emax>250)”.

Turning to `Cc1cc2c(-c3ccc(Cl)cc3F)nc(C3CCO[C@H](c4cnn(C)c4)C3)nc2nc1C` (stereo in doubt) [Example 277, 4-(4-chloro-2-fluorophenyl)-6,7-dimethyl-2-((2S,4R)-2-(1-methyl-1H-pyrazol-4-yl)tetrahydro-2H-pyran-4-yl)pyrido[2,3-d]pyrimidine], the EC50 was 50 to 500 nM; the “hTREM2 Emax” value is “+++ (Emax>150 and ≤250)”.

As for `Cc1nc2nc(C3CCO[C@H](c4cnn(C)c4)C3)nc(-c3ccc(Cl)cc3F)c2nc1C` (stereo in doubt) [Example 276, 4-(4-chloro-2-fluorophenyl)-6,7-dimethyl-2-((2S,4R)-2-(1-methyl-1H-pyrazol-4-yl)tetrahydro-2H-pyran-4-yl)pteridine], the EC50 lay within 50 to 500 nM and the “hTREM2 Emax” value was “++++ (Emax>250)”.

Take `Cc1nc2nc([C@H]3CCO[C@@H](c4cnn(C5CC5)c4)C3)nc(-c3ccc(F)cc3F)c2nc1C` [Example 305, 2-((2R,4S)-2-(1-cyclopropyl-1H-pyrazol-4-yl)tetrahydro-2H-pyran-4-yl)-4-(2,4-difluorophenyl)-6,7-dimethylpteridine]: the EC50 was in the range of 50 to 500 nM; the “hTREM2 Emax” value was “+++ (Emax>150 and ≤250)”.

Consider `Cc1ccc(-c2nc([C@H]3CCO[C@@H](c4cnn(C)c4)C3)nc3nc(C)c(C)cc23)c(F)c1` (single isomer, unassigned) [Example 203], for which the EC50 was at most 50 nM; the “hTREM2 Emax” value is “+++ (Emax>150 and ≤250)”.

Regarding `Cc1nc2cc(N3CCO[C@@H](c4cnn(C)c4)C3)cc(-c3ccc(F)cc3F)c2nc1C` [Example 164, 5-(2,4-difluorophenyl)-2,3-dimethyl-7-((2S)-2-(1-methyl-1H-pyrazol-4-yl)-4-morpholinyl) quinoxaline], the EC50 is at most 50 nM and the “hTREM2 Emax” value was “++++ (Emax>250)”.

For `Cc1ccc2cc(N3CCO[C@@H](c4cnn(C)c4)C3)nc(-c3ccc(Cl)cc3F)c2c1` [Example 236, (S)-4-(1-(4-chloro-2-fluorophenyl)-7-methylisoquinolin-3-yl)-2-(1-methyl-1H-pyrazol-4-yl)morpholine], the EC50 was in the range of 3000 to 100000 nM; the “hTREM2 Emax” value was “+++ (Emax>150 and ≤250)”.

For the compound `Cn1cc([C@H]2CN(c3cc4ccccc4c(-c4ccc(Cl)cc4F)n3)CCO2)cn1` [Example 235, (S)-4-(1-(4-chloro-2-fluorophenyl)isoquinolin-3-yl)-2-(1-methyl-1H-pyrazol-4-yl)morpholine], the EC50 is 3000 to 100000 nM; the “hTREM2 Emax” value was “+ (Emax>45 and ≤100)”.

As for `Cc1cc([C@@H]2C[C@@H](c3nc(-c4ccc(Cl)cc4F)c4nc(C)c(C)nc4n3)CCO2)ccn1` [Example 272, 4-(4-chloro-2-fluorophenyl)-6,7-dimethyl-2-((2S,4S)-2-(2-methylpyridin-4-yl)tetrahydro-2H-pyran-4-yl)pteridine], the EC50 is at most 50 nM and the “hTREM2 Emax” value is “++++ (Emax>250)”.

Consider `Cc1ccc(-c2nc([C@H]3CCO[C@H](c4ccnc(C)c4)C3)nc3nc(C)c(C)nc23)c(F)c1` [Example 286, 4-(2-fluoro-4-methylphenyl)-6,7-dimethyl-2-((2S,4S)-2-(2-methylpyridin-4-yl)tetrahydro-2H-pyran-4-yl)pteridine], for which the EC50 was at most 50 nM; the “hTREM2 Emax” value was “+++ (Emax>150 and ≤250)”.

For the compound `Cc1cc([C@H]2CN(c3nc(-c4ccc(C(F)(F)F)nc4)c4nc(C)c(C)nc4n3)CCO2)cnn1` [Example 299, (S)-4-(6,7-dimethyl-4-(6-(trifluoromethyl)pyridin-3-yl)pteridin-2-yl)-2-(6-methylpyridazin-4-yl)morpholine], the EC50 is at most 50 nM; the “hTREM2 Emax” value is “+++ (Emax>150 and ≤250)”.

On to `Cc1ncc([C@H]2C[C@@H](c3nc(-c4ccc(Cl)cc4F)c4nc(C)c(C)nc4n3)CCO2)cn1` (single isomer, unassigned) [Example 209], for which the half-maximal effective concentration (EC50) was 50 to 500 nM; the “hTREM2 Emax” value was “+++ (Emax>150 and ≤250)”.

For the compound `Cc1cc2c(-c3ccc(F)cc3F)nc([C@H]3CCO[C@@H](c4cnn(C)c4)C3)nc2nc1C` (single isomer, unassigned) [Example 201], the EC50 was at most 50 nM; the “hTREM2 Emax” value was “+++ (Emax>150 and ≤250)”.

Consider `Cc1nc2nc([C@@H]3CCO[C@H](c4cnn(C)c4)C3)nc(C3CCC(F)(F)CC3)c2nc1C` (single isomer, unassigned) [Example 175], for which the EC50 fell in the range of 500 to 3000 nM; the “hTREM2 Emax” value was “++ (Emax>100 and ≤150)”.

With `Cc1nc2nc(N3CCO[C@@H](c4cnn(C)c4)C3)nc(C3CC4(C3)CC(F)(F)C4)c2nc1C` [Example 46, 4-(6,6-difluorospiro[3.3]heptan-2-yl)-6,7-dimethyl-2-((2S)-2-(1-methyl-1H-pyrazol-4-yl)-4-morpholinyl)pteridine], the concentration for a half-maximal effect (EC50) was at most 50 nM; the “hTREM2 Emax” value was “+++ (Emax>150 and ≤250)”.

Take `Cc1ncc([C@H]2CN(c3nc(-c4ccc(Cl)cc4F)c4nc(C)c(C)nc4n3)CCO2)cn1` (single isomer, unassigned) [Example 24]: the EC50 lay within 50 to 500 nM and the “hTREM2 Emax” value is reported as “++++ (Emax>250)”.

In turn, `Cc1nc2cc([C@H]3CCO[C@@H](c4cnn(C5CC5)c4)C3)nc(-c3ccc(Cl)cc3F)c2nc1C` [Example 296, 5-(4-chloro-2-fluorophenyl)-7-((2R,4S)-2-(1-cyclopropyl-1H-pyrazol-4-yl)tetrahydro-2H-pyran-4-yl)-2,3-dimethylpyrido[3,4-b]pyrazine] registered an EC50 of 3000 to 100000 nM.

Consider `Cc1nc2cc([C@H]3CCO[C@@H](c4cnn(C)c4)C3)nc(-c3ccc(F)cc3F)c2nc1C` (single isomer, unassigned) [Example 195], for which the EC50 is at most 50 nM and the “hTREM2 Emax” value was “++++ (Emax>250)”.

For `Cc1cc2c(-c3ccc(F)cc3F)nc([C@@H]3CCO[C@@H](c4cnn(C)c4)C3)nc2nc1C` [Example 267, 4-(2,4-difluorophenyl)-6,7-dimethyl-2-((2R,4R)-2-(1-methyl-1H-pyrazol-4-yl)tetrahydro-2H-pyran-4-yl)pyrido[2,3-d]pyrimidine], the EC50 was in the range of 500 to 3000 nM; the “hTREM2 Emax” value is “++ (Emax>100 and ≤150)”.

Consider `Cc1cc([C@H]2C[C@@H](c3cc4nc(C)c(C)nc4c(-c4ccc(Cl)cc4F)n3)CCO2)ccn1` (single isomer, unassigned) [Example 218], for which the EC50 was at most 50 nM; the “hTREM2 Emax” value was “+++ (Emax>150 and ≤250)”.
